Target: T1, α2 δ subunit of a calcium channel (Sus scrofa, UniProt A0A287BIN3)
T1 construct: derived from porcine brain tissue; from tissue; host or cells: porcine brain tissue
Assay: Radioligand binding assay using [^3 H]gabapentin and the α2 δ subunit derived from porcine brain tissue
Settings: Table 1, [^3 H]gabapentin

T1 sequence (A0A287BIN3 entry or part of it): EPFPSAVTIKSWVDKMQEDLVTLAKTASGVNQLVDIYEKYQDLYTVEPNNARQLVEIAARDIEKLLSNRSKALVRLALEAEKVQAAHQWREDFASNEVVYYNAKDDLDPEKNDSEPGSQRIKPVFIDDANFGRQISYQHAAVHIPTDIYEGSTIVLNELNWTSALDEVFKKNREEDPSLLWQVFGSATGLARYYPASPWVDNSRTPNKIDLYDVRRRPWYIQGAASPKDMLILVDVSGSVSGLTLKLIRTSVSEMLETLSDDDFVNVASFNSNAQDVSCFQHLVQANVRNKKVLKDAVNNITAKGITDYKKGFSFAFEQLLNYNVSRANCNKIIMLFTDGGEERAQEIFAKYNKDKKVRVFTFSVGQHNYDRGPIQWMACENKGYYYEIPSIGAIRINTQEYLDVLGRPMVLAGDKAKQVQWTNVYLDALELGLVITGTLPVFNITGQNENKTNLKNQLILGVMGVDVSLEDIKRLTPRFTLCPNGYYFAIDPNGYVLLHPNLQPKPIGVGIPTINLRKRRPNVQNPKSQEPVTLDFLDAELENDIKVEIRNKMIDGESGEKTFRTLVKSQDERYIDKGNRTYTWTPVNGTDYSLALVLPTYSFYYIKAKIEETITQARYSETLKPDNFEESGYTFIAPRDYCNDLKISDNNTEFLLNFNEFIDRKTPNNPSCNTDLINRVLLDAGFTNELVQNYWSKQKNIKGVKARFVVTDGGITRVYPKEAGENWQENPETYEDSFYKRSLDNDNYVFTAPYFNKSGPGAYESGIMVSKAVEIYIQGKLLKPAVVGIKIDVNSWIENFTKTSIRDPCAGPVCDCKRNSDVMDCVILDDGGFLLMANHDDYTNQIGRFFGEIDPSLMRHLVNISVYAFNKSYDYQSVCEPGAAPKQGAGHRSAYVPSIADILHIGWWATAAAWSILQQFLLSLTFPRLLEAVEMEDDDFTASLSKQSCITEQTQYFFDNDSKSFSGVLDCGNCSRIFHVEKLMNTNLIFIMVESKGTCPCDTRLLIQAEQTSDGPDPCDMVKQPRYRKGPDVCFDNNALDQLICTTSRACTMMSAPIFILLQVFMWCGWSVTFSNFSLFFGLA

| SMILES | IC50 [nM] |
| --- | --- |
| NCC1(CC(=O)O)C2CCCC1CCC2 (centres unmarked) [Compound 3] | 47 |
| NCC1(CC(=O)O)CC2CCC1C2 (racemic) [Compound 5] | 103 |

Reference: patent publication US6020370A, “Bridged cyclic amino acids as pharmaceutical agents” (Warner-Lambert Company, priority 1998, dated 2000)
